Series [1] can be described thus: Cytotoxicity in HCV-1a replicon cells, Promega CellTiter-Glo cell viability assay. In general terms: In antiviral work, replicon cells carry a viral genome segment that copies itself.
Series [2] has as its system genotype 1a H-77 replicon. The experiment in a line: HCV-1a replicon potency in RLuc-1 cells, bioluminescence. Type of series: cell-based. As to conditions: for HCV-1a Replicon Selectivity Index: CC50/EC50, genotype 1a replicon; for EC50: Hepatitis C virus, 72 h, read-out: HCV-1a Replicon EC50 (μM).

Consider 26 molecules from patent publication US9730944B2, “Antiviral activity of novel bicyclic heterocycles” (priority 2010, dated 2017).

Take `Nc1nc(N2CCN(C(=O)COc3ccc(Cl)cc3)CC2)c2nc(-c3cccc(Cl)c3)[nH]c2n1` [Example 393, 1-(4-(2-amino-8-(3-chlorophenyl)-9H-purin-6-yl)piperazin-1-yl)-2-(4-chlorophenoxy)ethanone]: the CC50 (as a rule, the concentration that lowers cell viability or growth by half) at 72 h in series [1] was 8.1 µM. In addition, in series [2], the “HCV-1a Replicon Selectivity Index” value was 2.5 and the EC50 (as a rule, the concentration giving half of the maximal effect) is 3.2 µM.
Turning to `Cc1cccc(NC(=O)N2CCN(c3nc(N)nc4sc(-c5ccccc5)cc34)CC2)c1` [Example 330, 4-(2-amino-6-phenylthieno[2,3-d]pyrimidin-4-yl)-N-m-tolylpiperazine-1-carboxamide], in series [1], the 50% cytotoxic concentration (CC50) at 72 h turned out to be 43.5 µM. Moreover, in series [2], the “HCV-1a Replicon Selectivity Index” value is 6.0 and the EC50 came out at 7.2 µM.
In the same order, the values of `Nc1nc(NC2CCCN(C(=O)OCc3ccccc3)C2)c2nc(CCc3ccc(F)cc3)sc2n1` (stereo not drawn) [Example 145, 5-amino-2-[2-(4-fluorophenyl)ethyl]-7-(1-benzyloxycarbonylpiperidin-3-ylamino)-thiazolo[5,4-d]pyrimidine] are 27.6 µM, 2.1 and 13.1 µM.
Molecule `COc1cccc(C(=O)N2CCN(c3nc(N)nc4[nH]c(-c5ccc(F)cc5)nc34)CC2)c1` [Example 402, (4-(2-amino-8-(4-fluorophenyl)-9H-purin-6-yl)piperazin-1-yl)(3-methoxyphenyl)methanone] came in with a CC50 at 72 h in series [1] greater than 44.4 µM. For the same molecule, in series [2], the EC50 was greater than 44.4 µM.
In series [1], `Nc1nc(N2CCN(C(=O)COc3ccc(Cl)cc3)CC2)c2nc(C(c3ccc(F)cc3)C3CCCC3)sc2n1` (stereo not drawn) [Example 151, 5-amino-2-[cyclopentyl-(4-fluorophenyl)methyl]-7-(4-[2-(4-chlorophenoxy)acetyl]piperazin-1-yl)thiazolo[5,4-d]pyrimidine] yielded a CC50 at 72 h of 31.2 µM. Besides, in series [2], the “HCV-1a Replicon Selectivity Index” value is reported as 2.1 and the EC50 turned out to be 14.7 µM.
Take `CC(=O)N1CCN(c2nc(N)nc3[nH]c(-c4ccc(F)cc4)nc23)CC1` [Example 408, 1-(4-(2-amino-8-(4-fluorophenyl)-9H-purin-6-yl)piperazin-1-yl)ethanone]: the CC50 at 72 h in series [1] was greater than 44.4 µM. Besides, the EC50 in series [2] was greater than 44.4 µM.
The molecule `Nc1nc(N[C@H]2CCN(C(=O)COc3ccc(Cl)cc3)C2)c2nc(CCc3ccc(F)cc3)sc2n1` [Example 147, 5-amino-2-[2-(4-fluorophenyl)ethyl]-7-(1-(4-chlorophenoxyacetyl)pyrrolidin-3-(S)-ylamino)-thiazolo[5,4-d]pyrimidine] came in with a CC50 at 72 h in series [1] of 15.5 µM. Further, in series [2], the “HCV-1a Replicon Selectivity Index” value is given as 0.5 and the EC50 came to 31 µM.
In the case of `Nc1nc(N2CCN(C(=O)Cc3cccs3)CC2)c2nc(-c3ccc(F)cc3)[nH]c2n1` [Example 403, 1-(4-(2-amino-8-(4-fluorophenyl)-9H-purin-6-yl)piperazin-1-yl)-2-(thiophen-2-yl)ethanone], the CC50 at 72 h in series [1] amounted to 9.6 µM. Besides, in series [2], the “HCV-1a Replicon Selectivity Index” value is 0.8 and the EC50 came to 11.3 µM.
In the same order, the values of `Nc1nc(N2CCN(C(=O)COc3ccc(Cl)cc3)CC2)c2nc(-c3cccnc3)sc2n1` [Example 121a, 5-amino-7-[4-(4-chlorophenoxyacetyl)piperazin-1-yl]-2-(pyridine-3-yl)thiazolo[5,4-d]pyrimidine] are greater than 44.4 µM, greater than 888 and 0.05 µM.
Turning to `Nc1nc(N2CCN(C(=O)COc3ccccc3)CC2)c2nc(CCc3ccc(F)cc3)sc2n1` [Example 134, 5-amino-2-[2-(4-fluorophenyl)ethyl]-7-(4-[2-phenoxyacetyl]piperazin-1-yl)-thiazolo[5,4-d]pyrimidine], in series [1], the CC50 at 72 h is greater than 44.4 µM. Further, the EC50 in series [2] was greater than 44.4 µM.
Regarding `Cc1cccc(NC(=O)N2CCN(c3nc(N)nc4sc(CCc5ccc(F)cc5)nc34)CC2)c1` [Example 133, 5-amino-2-[2-(4-fluorophenyl)ethyl]-7-(4-m-tolylcarbamoylpiperazin-1-yl)-thiazolo[5,4-d]pyrimidine], in series [1], half-maximal cytotoxicity (CC50 at 72 h) was put at 15.8 µM. Also, in series [2], the “HCV-1a Replicon Selectivity Index” value was 1.5 and the EC50 was 10.7 µM.
Turning to `Nc1nc(N2CCN(C(=O)COc3ccc(Cl)cc3)CC2)c2nc(CCc3ccccc3)sc2n1` [Example 118, 5-amino-7-[4-(4-chlorophenoxyacetyl)piperazin-1-yl]-2-(2-phenylethyl)thiazolo[5,4-d]pyrimidine], in series [1], half-maximal cytotoxicity (CC50 at 72 h) was put at 30.3 µM. Besides, in series [2], the “HCV-1a Replicon Selectivity Index” value turned out to be 8.4 and the EC50 is 3.6 µM.
Turning to `Nc1nc(N2CCN(C(=O)COc3ccc(Cl)cc3)CC2)c2nc(C3CCCCC3)sc2n1` [Example 120, 5-amino-7-[4-(4-chlorophenoxyacetyl)piperazin-1-yl]-2-cyclohexylthiazolo[5,4-d]pyrimidine], in series [1], the half-maximal cytotoxic concentration (CC50) at 72 h turned out to be 13.4 µM. Moreover, in series [2], the “HCV-1a Replicon Selectivity Index” value was 2.1 and the EC50 was found to be 6.4 µM.
In the same order, the values of `COc1ccc(-c2nc3c(N4CCN(C(=O)COc5ccc(Cl)cc5)CC4)nc(N)nc3[nH]2)cc1OC` [Example 390, 1-(4-(2-amino-8-(3,4-dimethoxyphenyl)-9H-purin-6-yl)piperazin-1-yl)-2-(4-chlorophenoxy)ethanone] are 17.3 µM, 9.9 and 1.7 µM.
In turn, `Nc1nc(N2CCN(CC(=O)Nc3cccnc3)CC2)c2nc(-c3ccc(F)cc3)[nH]c2n1` [Example 412, 2-(4-(2-amino-8-(4-fluorophenyl)-9H-purin-6-yl)piperazin-1-yl)-N-(pyridin-3-yl)acetamide] returned a CC50 at 72 h in series [1] greater than 44.4 µM. Further, in series [2], the “HCV-1a Replicon Selectivity Index” value is greater than 111 and the EC50 was 0.4 µM.
For `Cn1c(-c2ccc(F)cc2)nc2c(N3CCN(C(=O)COc4ccc(Cl)cc4)CC3)nc(N)nc21` [Example 430, 1-(4-(2-amino-8-(4-fluorophenyl)-9-methyl-9H-purin-6-yl)piperazin-1-yl)-2-(4-chlorophenoxy)ethanone], in that order: 15.1 µM, 54.0 and 0.3 µM.
For `CSc1nc2c(N3CCN(C(=O)COc4ccc(Cl)cc4)CC3)nc(N)nc2[nH]1` [Example 424, 1-(4-(2-amino-8-(methylthio)-9H-purin-6-yl)piperazin-1-yl)-2-(4-chlorophenoxy)ethanone], in that order: greater than 44.4 µM, greater than 1.3 and 34.8 µM.
Molecule `CC(c1ccc(Cl)cc1)c1nc2c(N3CCN(C(=O)COc4ccc(Cl)cc4)CC3)nc(N)nc2s1` (stereo not drawn) [Example 125, 5-amino-7-[4-(4-chlorophenoxyacetyl)piperazin-1-yl]-2-(1-(4-chlorophenyl)ethyl)thiazolo[5,4-d]pyrimidine] showed a 50% cytotoxic concentration (CC50) at 72 h in series [1] of 24.4 µM. Moreover, in series [2], the “HCV-1a Replicon Selectivity Index” value came out at 1.1 and the concentration giving a half-maximal response (EC50) came to 22.6 µM.
Molecule `Nc1nc(N2CCN(C(=O)COc3ccc(Cl)cc3)CC2)c2nc(Cc3ccc(Cl)cc3)sc2n1` [Example 122, 5-amino-7-[4-(4-chlorophenoxyacetyl)piperazin-1-yl]-2-(4-chlorophenylmethyl)thiazolo[5,4-d]pyrimidine] gave a CC50 at 72 h in series [1] of 26.8 µM. For the same molecule, in series [2], the “HCV-1a Replicon Selectivity Index” value worked out at 5.8 and the EC50 turned out to be 4.7 µM.
For `CCCSc1nc2c(N3CCN(C(=O)COc4ccc(Cl)cc4)CC3)nc(N)nc2[nH]1` [Example 425, 1-(4-(2-amino-8-(propylthio)-9H-purin-6-yl)piperazin-1-yl)-2-(4-chlorophenoxy)ethanone], the CC50 at 72 h in series [1] stood at 23.6 µM. Further, in series [2], the “HCV-1a Replicon Selectivity Index” value amounted to 19.7 and the EC50 worked out at 1.2 µM.
`Nc1nc(N2CCN(C(=O)c3ccc(Cl)cc3)CC2)c2nc(CCc3cccs3)sc2n1` [Example 156, 5-amino-2-(2-thiophen-2-ylethyl)-7-(4-(4-chloro-benzoyl)piperazin-1-yl)thiazolo[5,4-d]pyrimidine]: it took 30.7 µM to reach half-maximal cytotoxicity in series [1] (CC50 at 72 h). In series [2], the “HCV-1a Replicon Selectivity Index” value worked out at 1.5 and the EC50 came to 20.7 µM.
Regarding `Nc1nc(N2CCN(C(=O)COc3ccc(Cl)cc3)CC2)c2nc(-c3ccc(Cl)c(Cl)c3)sc2n1` [Example 116, 5-amino-7-[4-(4-chlorophenoxyacetyl)piperazin-1-yl]-2-(3,4-dichlorophenyl)thiazolo[5,4-d]pyrimidine], it took 37.2 µM to reach half-maximal cytotoxicity in series [1] (CC50 at 72 h). In addition, in series [2], the “HCV-1a Replicon Selectivity Index” value amounted to 0.8 and the EC50 was greater than 44.4 µM.
For `Cc1cccc(NC(=O)N2CCCN(c3nc(N)nc4[nH]c(-c5ccc(F)cc5)nc34)CC2)c1` [Example 422, 4-(2-amino-8-(4-fluorophenyl)-9H-purin-6-yl)-N-m-tolyl-1,4-diazepane-1-carboxamide], the midpoint of cytotoxicity in series [1], the CC50 at 72 h, lay at 35.1 µM. For the same molecule, in series [2], the “HCV-1a Replicon Selectivity Index” value was determined as 1.3 and the EC50 was determined as 26.1 µM.
In the same order, the values of `Nc1nc(N2CCN(C(=O)COc3ccc(Cl)cc3)CC2)c2nc(SCCc3ccccc3)[nH]c2n1` [Example 427, 1-(4-(2-amino-8-(phenethylthio)-9H-purin-6-yl)piperazin-1-yl)-2-(4-chlorophenoxy)ethanone] are 5.8 µM, 1.1 and 5.2 µM.
In series [1], `Nc1nc(N2CC[C@@H](NC(=O)COc3ccc(Cl)cc3)C2)c2nc(CCc3ccc(F)cc3)sc2n1` [Example 143, 5-amino-2-[2-(4-fluorophenyl)ethyl]-7-(3-(R)-[2-(4-chlorophenoxy)-acetylamino]pyrrolidin-1-yl)-thiazolo[5,4-d]pyrimidine] yielded a CC50 at 72 h of 30.4 µM. In addition, in series [2], the “HCV-1a Replicon Selectivity Index” value was found to be 0.7 and the EC50 is greater than 44.4 µM.
For `Nc1nc(N2CCCN(C(=O)COc3ccc(Cl)cc3)CC2)c2nc(-c3ccc(F)cc3)[nH]c2n1` [Example 421, 1-(4-(2-amino-8-(4-fluorophenyl)-9H-purin-6-yl)-1,4-diazepan-1-yl)-2-(4-chlorophenoxy)ethanone], in that order: 23.8 µM, 1.9 and 12.7 µM.
